# From patent publication US12083111B2, “Use of hexokinase 2/mitochondria-detaching compounds for activating immune responses” (Vidac Pharma Ltd., priority 2016, dated 2024)
# Tests used:
# [1] = test system: primary Balb/C mouse splenocytes (CD8+ T cells); test: Activated primary splenocytes: FACS for CD44, CD62L and live cells; format: cell-based
# Method: FIGS. 7A-F. Formula C administration shifts effector CD8+ T cells to central memory cells. Primary Balb/C mouse splenocytes were grown in culture and activated by anti-CD3e and anti CD28 antibodies to shift them towards CD8+/CD4+ phenotype. Cells were then treated with Formula C (FIG. 7E), 2-DG (2-deoxyglucose, positive control) (FIG. 7C), or vehicle (FIG. 7B, FIG. 7D) for 24 hours followed by FACS analysis for CD44 and CD62L.
# Spleens from the 2 BALB/C female mice (8.5 weeks old) were injected with cold PBS in a […] to obtain cell suspension, using a 27 g needle. The spleens were then crushed using the back of a 10 ml syringe. The suspension was passed through a 21 g needle and filtered using a 70 um cells strainer. The plate was washed once with 10 ml PBS and the solution was filtered as well. Cells were centrifuged for 10 min at 1200 rpm, 4° C. The pellet was broken on the grill and re-suspended in 10 ml AKC X1 lysis buffer (1:10 dilution of X10 stock in Ultra-Pure Water). After 5 min on ice, PBS was added to a final volume of 50 ml, and cells were centrifuged for 10 min at 1200 rpm, 4° C. Pellet was re-suspended in 10 ml PBS and washed twice. After washing, pellet was re-suspended in 20 ml DCs medium and passed through a 40 μm cell strainer. Cells were suspended to 3×10^6 ml with DC medium and supplemented with 1:1000 (100 Units/ml) hIL-2 and 1:1000 (1 ug/ml) anti-CD28.
# The cells were seeded 1 ml/well in a 24-well plate precoated with 5 μg/ml 250 μl/well of anti-CD3e and carefully washed twice with 0.5 ml PBS (−/−), cells were added on the side of the wells to avoid washing away the antibody.
# Splenocytes were plated at 10^6 cells/well in a 24-well plate coated with 5 μg/ml anti-CD3e with soluble anti CD28 2 μg/ml and IL-2 100 units/ml. […]
# On the following day, cells were stained with: ghost dye 1 ul/sample (live/dead), and the following antibodies: CD62L, CD44, CD3, CD4, CD8 and analyzed by fluorescence-activated cell sorting (FACS).
# [2] = test system: mouse bone marrow-derived macrophages (BMDM); test: IL-1β secretion and viability in primary bone marrow-derived macrophages; format: cell-based; conditions: BALB/C or C57BL BMDM
# Method: BALB/C mouse bone marrow-derived macrophages (BMDM) or C57BL mouse bone marrow-derived macrophages were seeded at 3×10^4 cells/well in 96 well plates. The following day, cells were stimulated with interferon-gamma (IFNγ) overnight 50 ng/ml. Then Ultra-pure LPS (100 ng/ml) was added for 4 hours, followed by compound treatment for overnight, except for ATP (all compounds were added on top); ATP for 40 min. ELISA was performed on supernatants for mouse IL-1β detection. ATP and 2-DG were used as positive controls. No signal without IFN-γ even when seeded at 100,000 cells per well.
# B16-F10 melanoma mice = test: Ear inflammation score in the mouse B16-F10 melanoma model; format: in vivo; conditions: scale 0-4, topical
# Method: (§1) Female C57Bl/6 mice at 8 weeks of age were purchased from Harlan, Jerusalem, Israel. The animals were housed (6 or 7/cage) under controlled conditions (temperature, light, humidity) and given food and water ad libitum. After 14 days of acclimatization, the animals were inoculated with 0.25*10^6 B16-F10 melanoma cells/mouse in 30 μl PBS under the skin of the right ear of each mouse.
# (§2) The mice were inoculated with B16-F10 melanoma cells and divided randomly into […] (9 mice each): a) B16-F10 inoculated, untreated; and b) B16-F10 inoculated, Formula C (50% v/v in olive oil) treated
# (§3) The treatment was initiated when the tumors reached the target volume of approximately 1 mm^3. Drug was topically administered to the area of the tumor daily for 18 days.
# Inflammation was graded on a scale of 0-4 as: 0 (absence of inflammation), 1 (redness), 2 (tissue inflammation), 3 (pronounced tissue inflammation), and 4 (damage to the ear).
# [3] = test system: CT26 mouse colorectal cancer cells; test: CT26 syngeneic colorectal cancer model: tumor volume; format: in vivo; conditions: Balb/C mice, SC with esterase-inhibitor BNPP (IP)
# Method: (§4) Colorectal cancer was induced in Balb/C mice using CT26 mouse colorectal cancer cells. Formula C was administered SC with esterase-inhibitor BNPP (IP).
# [4] = test system: macrophages in CT26 tumors; test: FACS of CT26 tumors for macrophage markers MHCII and CD206 (M2 to M1 shift); format: in vivo, mouse; conditions: 150 mg/kg, day 20
# Method: (§5) FIG. 6B. Formula C administration shifts macrophages in vivo from pro-tumor (M2) macrophages to antitumor (M1) macrophages. CT26 tumors from Formula C or vehicle-treated Balb/C mice with CT26 mouse colorectal cancer was analyzed for MHCII marker by FACS. Dark color: Vehicle treated CT26 tumors from Balb/C mice (day 20). Light color: Formula C (150 mg/kg) treated CT26 tumors from Balb/C mice (day 20).
# as §5, with “6C.” for “6B.”, “CD206.” for “MHCII marker by FACS.”
# as §4
# Pro-tumor M2 Macrophages are characterized by low MHCII and high CD206. In contrast, anti-tumor M1 Macrophages are characterized by high MHCII and low CD206. CT26 tumors from Formula C or vehicle-treated Balb/C mice with CT26 mouse colorectal cancer were analyzed for MHCII (FIG. 6B) and CD206 (FIG. 6C) levels 20 days after treatment started.
# [5] = test system: THP-1 human monocytes differentiated to macrophages; test: IL-1β secretion from LPS-stimulated THP-1-derived macrophages (ELISA); format: cell-based; conditions: PMA-differentiated, ELISA of culture medium
# Method: FIG. 4. Formula C stimulates IL-1β secretion in activated human macrophages in vitro. THP-1 human monocytes were differentiated to mature macrophages and stimulated with LPS (Lipopolysaccharide) followed by Formula C treatment. Secreted IL-1β was analyzed in the culture medium by ELISA.
# The human monocyte cell line, THP-1, was grown in 10% FCS in RPMI medium. Cells were plated in 24 well plate, 5*10^6 cells/well and were differentiated to macrophages in the presence of 0.5 uM PMA (phorbol 12-myristate 13-acetate) for 24 hr. Media was replaced to contain LPS (10 ug/mL), 24 hr stimulation. ATP was added for 2 hours. Supernatants were collected and assayed by ELISA for the presence of IL-1β.
# [6] = test system: skin of UVB-exposed SKH-1 mice; test: UVB-exposed SKH-1 mouse AK/cSCC model: histology and IHC of immune cells in skin; format: in vivo
# Method: The formulation ingredients for vehicle, 2.5%, and 5% Formula C ointment consisted of: 32% Gelucire44/14® (Gattefossé, Saint-Priest, France), and 68% combined Labrasol® (Gattefossé, Saint-Priest, France) with corresponding amount of Formula C (w/w). New ointments were prepared every 2 weeks. The 40% topical solution was prepared just prior to use by mixing (w/w) 60% propylene glycol (Sigma, St. Louis, MO, USA) with 40% Formula C.
# UVB-induced skin damage was adopted from previous publications. Forty-eight SKH-1 hairless female mice were chronically exposed to 1.25 times the Minimal Erythemal Dose (MED) of UVB radiation. Lamp VL-6.M was used, irradiating at 312 nm with an intensity of 0.89 mW/cm2 (validated on Day 44) at a distance of 15 cm. Determination of UVB irradiation Minimal Erythemal Dose (MED) was performed prior to the beginning of the study. Animals were UVB irradiated for different duration (starting at 30 sec) and the presence of erythema was recorded 24 and 48 hours later. 1.25 times the MED of UVB irradiation was established to be equal to an exposure time of 5 min. Mice were UVB irradiated for 4-5 min at each irradiation session during the 16 weeks of pre-treatment disease induction. Prior to every irradiation session, the lamp was turned on for 5 min to ensure it reaches its maximal intensity. The irradiation schedule was five times a week for two weeks, one week off, and then three times a week through week 16. By that time, more than 60% of the animals had developed at least one SCC lesion. Three days after the final irradiation dose, the mice were randomly assigned to 1 of 4 treatment groups (N=12 mice/group), with similar tumor burden distribution between groups, and a 50-day treatment phase started. The 6 cm^2 (2×3 cm) treatment area was marked on the back of the mice with a black eight points rectangle tattoo. Five spare mice with the highest tumor burden were excluded from the main study. Treatment groups included: vehicle, 2.5% or 5% Formula C ointment, 50 μl of which was applied once-daily for 50 days, or 50 μl of 40% Formula C topical solution applied once-daily for the first 5 days of every three-week cycle (total of three treatment cycles). Following administration, each animal was placed in individual cage without bedding for 1.5 hours, until the ointment was absorbed.
# Histopathological analysis and IHC was performed according to standard protocols. Primary antibodies used: Rabbit anti-CD3 (SP7), rabbit anti-F4/80 (SB-M3072, SB-M4152, Nordic Biosite, Täby, Sweden), mouse anti-Langerin/CD207 (DDX0361, Dendritics, Lyon, France). A polymer system was used as a secondary antibody (KDB-10046 and KDB-10007, Nordic Biosite, Täby, Sweden). Semi-quantitative analysis was done in a blinded manner by a single experienced pathologist scoring ×40 high power fields, 7 different fields per slide.
# Statistical analysis was carried out using Graphpad Prism version 5.03 (Graphpad Software, San Diego, CA).
# B16-F10 melanoma cells = test: Topical treatment in the mouse B16-F10 melanoma model: tumor volume; format: in vivo; conditions: 50% v/v in olive oil
# Method: Mouse melanoma (B16-F10) cells were used. Mouse B16-F10 melanoma cells were maintained in DMEM. Media was supplemented with 10% heat-inactivated FCS, penicillin (100 U/ml), streptomycin (100 μg/ml), Sodium pyruvate (2 mM), and L-glutamine (4 mM). Confluent cultures were washed with PBS, detached with trypsin (0.25%), centrifuged, and subcultured in 96-well microtiter test plates.
# as §1, §2, §3
# [7] = high dose (40%) group, trending also at lower doses
# [8] = topical 2.5%, 5% ointment or 40% solution, 50-day treatment phase
SMILES,"percentage of live cells ([1]; stimulated splenocytes, 24 hours treatment, ghost dye)","IL-1β secretion ([2]; IFNγ then LPS, compound overnight, ELISA)",cell viability ([2]; even at high dosage),average inflammation score (B16-F10 melanoma mice; before the 18th day of treatment),average inflammation score (B16-F10 melanoma mice; by about the 15th day of treatment),tumor volume [3],CD206 levels versus vehicle-treated [4],MHCII levels versus vehicle-treated [4],IL-1β secretion [5],"CD44 and CD62L expression (shift from effector to memory cells) versus vehicle-treated ([1]; anti-CD3e/anti-CD28 stimulated splenocytes, 24 hours treatment)","percentage of live cells ([1]; female, BALB/c, mouse, 24 h)","CD3+ T cells in skin versus vehicle-treated [6, 7]","Langerin+ dendritic cells in skin versus vehicle-treated [6, 7]","mast cells in skin (toluidine blue) versus vehicle-treated [6, 8]","overall inflammation (H&E staining) versus vehicle-treated [6, 8]","F4/80 general staining for macrophages ([6]; topical, 50-day treatment phase, data not shown)","tumor volume compared with untreated group (B16-F10 melanoma cells; topical daily for 18 days, after day 11)","tumor growth (B16-F10 melanoma cells; topical daily, C57Bl/6 mice, right ear, first 11 days)"
"O=CC[C@@H](O)[C@H](O)[C@H](O)CO [Formula 2-DG, 2-deoxyglucose, reference compound]",Neither Formula C nor 2-DG treatment significantly affected the percentage of live cells,,,,,,,,,,,,,,,,,
CC/C=C\CC1C(=O)CCC1CC(=O)Oc1cccc2cccnc12 (stereo not drawn) [Formula C],,dose-dependently elicited IL-1β secretion,little effect on cell viability,over 3,about 3,decreased tumor volume,lower CD206 levels,higher MHCII levels,induced IL-1β secretion,higher CD44 and higher CD62L expression,Neither Formula C nor 2-DG treatment significantly affected the percentage of live cells,statistically-significant increase,statistically-significant increase,"statistically significant, dose-related increase",without apparent difference,no change,significantly lower than the tumor volume in the untreated group,no tumor growth for 11 days
